SMILES strings stand for the structures. Structures can show the parent of a compound that is named as a salt.

The record followed here is US7342014B2, “Diamine derivatives” (Daiichi Pharmaceutical Co., Ltd., priority 2001, dated 2008).

Turning to `CC(=O)OC(C)(C)C(=O)N1CC[C@H](NC(=O)c2cc3cc(Cl)ccc3[nH]2)[C@H](NC(=O)c2nc3c(s2)CN(C)CC3)C1` (relative stereo) [Example 148, 2-((3R*,4S*)-4-{[(5-Chloroindol-2-yl)carbonyl]amino}-3-{[(5-methyl-4,5,6,7-tetrahydrothiazolo[5,4-c]pyridin-2-yl)carbonyl]amino}piperidin-1-yl)-1,1-dimethyl-2-oxoethyl acetate], the melting point – broadly, the temperature of the solid-liquid transition – was 190 °C (dec.).

With `COCC(COC)C(=O)N1CC[C@H](NC(=O)c2cc3cc(Cl)ccc3[nH]2)[C@H](NC(=O)c2nc3c(s2)CN(C)CC3)C1` (relative stereo) (as salt: hydrochloride) [Example 152, N-{(3R*,4S*)-4-{[(5-Chloroindol-2-yl)carbonyl]amino}-1-[3-methoxy-2-(methoxymethyl)propanoyl]piperidin-3-yl]-5-methyl-4,5,6,7-tetrahydrothiazolo[5,4-c]pyridine-2-carboxamide hydrochloride], the melting point was 178 to 184 °C (dec.). With `CN1CCc2nc(C(=O)N[C@@H]3CCN(C(=O)OC(C)(C)C)C[C@@H]3NC(=O)c3cc4cc(Cl)ccc4[nH]3)sc2C1` (relative stereo) [Example 119, tert-Butyl (3R*,4S*)-3-{[(5-chloroindol-2-yl)carbonyl]-amino}-4-{[(5-methyl-4,5,6,7-tetrahydrothiazolo[5,4-c]-pyridin-2-yl)carbonyl]amino}piperidine-1-carboxylate], the melting point is 187 to 189 °C (dec.). `CN1CCc2nc(C(=O)N[C@@H]3CN(S(C)(=O)=O)CC[C@@H]3NC(=O)c3cc4cc(Cl)ccc4[nH]3)sc2C1` (relative stereo) (as salt: hydrochloride) [Example 126, N-[(3R*,4S*)-{[(5-Chloroindol-2-yl)carbonyl]amino}-1-(methylsulfonyl)piperidin-3-yl]-5-methyl-4,5,6,7-tetrahydrothiazolo[5,4-c]pyridine-2-carboxamide hydrochloride]: the melting point was 225 to 230 °C (dec.).

Take `CCC(=O)N1CC[C@H](NC(=O)c2cc3cc(Cl)ccc3[nH]2)[C@H](NC(=O)c2nc3c(s2)CN(C)CC3)C1` (relative stereo) (as salt: hydrochloride) [Example 133, N-((3R*,4S*)-4-{[(5-Chloroindol-2-yl)carbonyl]amino}-1-propionylpiperidin-3-yl)-5-methyl-4,5,6,7-tetrahydro-thiazolo[5,4-c]pyridine-2-carboxamide hydrochloride]: the melting point was 214 to 228 °C (dec.). With `CC(C)C(=O)N1CC[C@H](NC(=O)c2cc3cc(Cl)ccc3[nH]2)[C@H](NC(=O)c2nc3c(s2)CN(C)CC3)C1` (relative stereo) (as salt: hydrochloride) the figure was 266 to 272 °C (dec.). Regarding `CN1CCc2nc(C(=O)N[C@@H]3CS(=O)(=O)CC[C@H]3NC(=O)c3cc4cc(Cl)ccc4[nH]3)sc2C1` (relative stereo) (as salt: hydrochloride) [Example 181, N-((3R*,4S*)-4-{[(5-Chloroindol-2-yl)carbonyl]amino}-1,1-dioxohexahydro-1-thiopyran-3-yl)-5-methyl-4,5,6,7-tetrahydrothiazolo[5,4-c]pyridine-2-carboxamide hydrochloride], the melting point is 244 to 249 °C. For `CN1CCc2nc(C(=O)N[C@@H]3CN(C(=O)OC(C)(C)C)C[C@H]3NC(=O)c3cc4cc(Cl)ccc4[nH]3)sc2C1` [Example 94, tert-Butyl (3R,4R)-3-{[(5-chloroindol-2-yl)carbonyl]-amino}-4-{[(5-methyl-4,5,6,7-tetrahydrothiazolo[5,4-c]-pyridin-2-yl)carbonyl]amino}pyrrolidine-1-carboxylate] the value was 190 to 192 °C.
